# In ChEMBL document CHEMBL4304790, “Successful Strategies for Mitigation of a Preclinical Signal for Phototoxicity in a DGAT1 Inhibitor” (ACS Med Chem Lett, 2019):
# Where a name gives a salt, the structure may show the parent alone. Activity calls are given as the source filed them. The calls are words filed in the database; no cut-off is given here.
# How the values were obtained:
# [1] = Photo irritation factor, ratio of IC50 for cytotoxicity against BALB/c mouse 3T3 cells pretreated for 1 hr prior to 50 mins incubation in dark conditions followed by further incubation in DMEM medium for 20 to 22 hrs to IC50 for cytotoxicity against BALB/c mouse 3T3 cells pretreated for 1 hr prior to irradiation with UVA for 50 mins followed by further in DMEM medium incubation for 20 to 22 hrs …; type: cell-based; details: BALB/c 3T3 cells
# [2] = target: T1, Diacylglycerol O-acyltransferase 1 (Mus musculus, UniProt Q9Z2A7); assay: (§1) Inhibition of DGAT1 in mouse C2C12 cells assessed as reduction in intracellular triglyceride production incubated for 2 hrs in presence of BSA-complexed oleate by LC/MS/MS analysis; type: cell-based
# T1 sequence (Q9Z2A7 whole entry): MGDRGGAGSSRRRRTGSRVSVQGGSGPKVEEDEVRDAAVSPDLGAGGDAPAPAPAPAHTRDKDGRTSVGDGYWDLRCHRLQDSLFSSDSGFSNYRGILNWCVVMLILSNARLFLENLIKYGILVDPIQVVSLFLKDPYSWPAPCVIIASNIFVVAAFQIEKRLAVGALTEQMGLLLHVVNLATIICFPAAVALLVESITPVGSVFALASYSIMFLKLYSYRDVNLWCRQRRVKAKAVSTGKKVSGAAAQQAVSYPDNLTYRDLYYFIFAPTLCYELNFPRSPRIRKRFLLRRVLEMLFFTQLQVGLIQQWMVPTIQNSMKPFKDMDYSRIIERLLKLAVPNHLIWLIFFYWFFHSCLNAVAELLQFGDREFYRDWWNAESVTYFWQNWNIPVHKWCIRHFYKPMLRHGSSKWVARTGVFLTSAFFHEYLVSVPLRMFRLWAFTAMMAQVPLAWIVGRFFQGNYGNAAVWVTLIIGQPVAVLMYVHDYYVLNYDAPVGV
# [3] = target: T2, Diacylglycerol O-acyltransferase 1 (Homo sapiens) (UniProt O75907); assay: (§2) Inhibition of recombinant human his-tagged DGAT1 expressed in Sf9 insect cells using oleoyl-CoA and diolein as substrates incubated for 30 mins by LC/MS/MS analysis
# T2 sequence (whole entry): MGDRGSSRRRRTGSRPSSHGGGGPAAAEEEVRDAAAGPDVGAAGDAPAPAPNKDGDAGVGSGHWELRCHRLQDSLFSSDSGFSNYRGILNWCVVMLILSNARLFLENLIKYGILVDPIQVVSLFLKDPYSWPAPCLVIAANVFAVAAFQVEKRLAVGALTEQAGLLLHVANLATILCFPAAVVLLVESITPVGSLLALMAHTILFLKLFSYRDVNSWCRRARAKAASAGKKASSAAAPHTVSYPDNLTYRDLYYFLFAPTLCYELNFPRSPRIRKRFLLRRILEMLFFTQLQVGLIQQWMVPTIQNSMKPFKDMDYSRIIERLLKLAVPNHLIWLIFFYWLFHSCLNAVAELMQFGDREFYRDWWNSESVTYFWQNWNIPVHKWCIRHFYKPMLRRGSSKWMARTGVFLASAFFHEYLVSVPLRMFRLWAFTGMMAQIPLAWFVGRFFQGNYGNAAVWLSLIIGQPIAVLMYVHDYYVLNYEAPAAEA
# [4] = target: T3, Diacylglycerol O-acyltransferase 1 (Mus musculus) (UniProt Q9Z2A7); assay: as §1; type: cell-based
# T3 sequence (whole entry): T1 sequence (Q9Z2A7 whole entry)
# [5] = Half life in Sprague-Dawley rat at 0.5 mg/kg, iv measured upto 24 hrs; type: ADME, organism-based; details: in vivo
# [6] = Permeability across basolateral to apical side in human Caco2 cells; type: ADME, cell-based; details: Caco-2, read-out: permeability
# [7] = Clearance in Sprague-Dawley rat at 0.5 mg/kg, iv measured upto 24 hrs; type: ADME, organism-based; details: in vivo
# [8] = AUC (0 to 24 hrs) in Sprague-Dawley rat at 0.5 mg/kg, iv measured upto 24 hrs; type: ADME, organism-based; parameters: time < 24 hr, dose 0.5 mg/kg, route intravenous; details: in vivo
# [9] = AUC (0 to 24 hrs) in Sprague-Dawley rat at 1.5 mg/kg, po measured upto 24 hrs; type: ADME, organism-based; parameters: time < 24 hr, dose 1.5 mg/kg, route oral; details: in vivo
# Rattus norvegicus [10] = species: Rattus norvegicus; details: Sprague-Dawley, 5 mg/kg
# [11] = Toxicity in preclinical models assessed as GI tolerability
# [12] = Tmax in Sprague-Dawley rat at 1.5 mg/kg, po measured upto 24 hrs; type: ADME, organism-based; details: in vivo
# [13] = Protein binding in rat plasma; type: ADME, cell-free; details: read-out: PPB (converted)
# [14] = Permeability across apical to basolateral side in human Caco2 cells; type: ADME, cell-based; details: Caco-2, read-out: permeability
# [15] = Drug uptake in plasma of Sprague-Dawley rat lipid bolus model at 5 mg/kg, po administered via gavage 4 hrs prior to lipid challenge and measured upto 8 hrs post compound dose by LC-MS/MS analysis; type: ADME, organism-based; details: in vivo
# [16] = Oral bioavailability in Sprague-Dawley rat at 1.5 mg/kg measured upto 24 hrs; type: ADME, organism-based; details: in vivo
# [17] = Volume of distribution in Sprague-Dawley rat at 0.5 mg/kg, iv measured upto 24 hrs; type: ADME, organism-based; details: in vivo
# [18] = Cmax in Sprague-Dawley rat at 1.5 mg/kg, po measured upto 24 hrs; type: ADME, organism-based; parameters: dose 1.5 mg/kg, route oral; details: in vivo
# [19] = Solubility of compound at pH 6.8; type: physicochemical; details: buffer
# [20] = Lipophilicity, log D of the compound at pH 7.4; type: physicochemical; details: buffer
# [21] = Dissociation constant, pKa of compound; type: physicochemical
# [22] = Volume of distribution in Sprague-Dawley rat at 1 mg/kg, iv measured upto 24 hrs; type: ADME, organism-based; details: in vivo
# [23] = target: T4, Diacylglycerol O-acyltransferase 1 (Homo sapiens, UniProt O75907); assay: as §2
# T4 sequence (O75907 whole entry): T2 sequence (whole entry)
# [24] = Oral bioavailability in Sprague-Dawley rat at 5 mg/kg measured upto 24 hrs; type: ADME, organism-based; details: in vivo
# [25] = AUC (0 to 24 hrs) in Sprague-Dawley rat at 1 mg/kg, iv measured upto 24 hrs; type: ADME, organism-based; parameters: dose 1 mg/kg, time < 24 hr, route intravenous; details: in vivo
# [26] = Tmax in Sprague-Dawley rat at 5 mg/kg, po measured upto 24 hrs; type: ADME, organism-based; details: in vivo
# [27] = Cmax in Sprague-Dawley rat at 5 mg/kg, po measured upto 24 hrs; type: ADME, organism-based; parameters: dose 5 mg/kg, route oral; details: in vivo
# [28] = Half life in Sprague-Dawley rat at 1 mg/kg, iv measured upto 24 hrs; type: ADME, organism-based; details: in vivo
# [29] = Efflux ratio of permeability across basolateral to apical side over apical to basolateral side in human Caco2 cells; type: ADME, cell-based; details: Caco-2
# [30] = Clearance in Sprague-Dawley rat at 1 mg/kg, iv measured upto 24 hrs; type: ADME, organism-based; details: in vivo
# Rattus norvegicus [31] = assay: Antihyperlipidemic activity in Sprague-Dawley rat lipid bolus model assessed as reduction in plasma triglyceride excursion at 5 mg/kg, po administered via gavage 4 hrs prior to lipid challenge and measured upto 8 hrs post compound dose by GPO-Trinder method relative to control; type: functional
# [32] = AUC (0 to 24 hrs) in Sprague-Dawley rat at 5 mg/kg, po measured upto 24 hrs; type: ADME, organism-based; parameters: dose 5 mg/kg, time < 24 hr, route oral; details: in vivo
# [33] = Half life in po dosed human plasma administered as single dose; type: ADME, organism-based
structure (smiles),measurement,setting,value
CN(C)CCCN1c2ccccc2Sc2ccc(Cl)cc21 [CHLORPROMAZINE HYDROCHLORIDE],selectivity ratio,[1],> 6
O=C(O)C[C@H]1CC[C@H](c2ccc(-c3ccc(Nc4nnc(C5CCC5)s4)cn3)cc2)CC1,EC50,[2],8 nM
COc1ccc2nc(Nc3ccc(-c4ccc([C@H]5CC[C@H](CC(=O)O)CC5)cc4)nc3)oc2c1,selectivity ratio,[1],17
CC(C)(C)c1nnc(Nc2ccc(-c3ccc([C@H]4CC[C@H](CC(=O)O)CC4)cc3)nc2)o1,inhibition,[3],Active
same,inhibition,[4],Active
CCc1nc(C)c(C(=O)Nc2ccc(-c3ccc(C45CCC(CC(=O)O)(CC4)OC5)cc3)cc2)o1,half-life,[5],20 h
same,Papp B→A,[6],7.7 ×10⁻⁶ cm/s
same,clearance,[7],0.2 mL/min/kg
same,AUC(0-t) at 24 h,[8],51.4 µM·h
same,AUC(0-t) at 24 h,[9],180 µM·h
same,inhibition,Rattus norvegicus [10],Active
same,Activity,[11],Non-Toxic
same,Tmax,[12],3 h
same,fraction unbound,[13],< 0.01
same,Papp A→B,[14],18.3 ×10⁻⁶ cm/s
same,Drug uptake,[15],Active
same,bioavailability,[16],> 100%
same,Vd,[17],0.3 L/kg
same,Cmax,[18],28 µM
same,solubility,[19],13 µM
CC(C)c1nnc(Nc2ccc(-c3ccc(N4CCC(CC(=O)O)CC4)cc3)nc2)o1,EC50,[2],2300 nM
same,logD,[20],0.7
same,pKa,[21],3.8
O=C(O)CC12CCC(c3ccc(-c4ccc(Nc5nnc(C6CCC6)o5)cn4)cc3)(CC1)CO2,logD,[20],1.5
same,pKa,[21],3.9
O=C(O)C[C@H]1CC[C@H](c2ccc(-c3ccc(Nc4ccc(C(F)(F)F)nc4)cn3)cc2)CC1,Vd,[22],0.1 L/kg
same,Papp B→A,[6],2.3 ×10⁻⁶ cm/s
same,IC50,[23],55 nM
same,bioavailability,[24],83%
same,AUC(0-t) at 24 h,[25],46 µM·h
same,Tmax,[26],0.7 h
same,Cmax,[27],42 µM
same,EC50,[2],71 nM
same,half-life,[28],5.1 h
same,Activity,[11],Non-Toxic
same,logD,[20],3.6
same,efflux ratio,[29],0.28
same,fraction unbound,[13],0.003
same,clearance,[30],1 mL/min/kg
same,inhibition in vivo at 5 mg/kg,Rattus norvegicus [31],50 to 70%
same,AUC(0-t) at 24 h,[32],190 µM·h
same,Papp A→B,[14],8.1 ×10⁻⁶ cm/s
same,pKa,[21],4.1
same,selectivity ratio,[1],56
same,half-life,[33],125 h
same,solubility,[19],< 5 µM
CCc1nc(C)c(C(=O)Nc2ccc(-c3ccc([C@H]4CC[C@H](CC(=O)O)CC4)cc3)nc2)o1,EC50,[2],8 nM
same,selectivity ratio,[1],1
CCc1nnc(Nc2ccc(-c3ccc([C@H]4CC[C@H](CC(=O)O)CC4)cc3)nc2)o1,EC50,[2],27 nM
O=C(O)CC12CCC(c3ccc(-c4ccc(Nc5nnc(C6CCC6)o5)cc4)cc3)(CC1)CO2,half-life,[5],3.2 h
same,Papp B→A,[6],11.8 ×10⁻⁶ cm/s
same,clearance,[7],3.5 mL/min/kg
same,AUC(0-t) at 24 h,[8],5.16 µM·h
same,AUC(0-t) at 24 h,[9],25.8 µM·h
same,inhibition,Rattus norvegicus [10],Active
same,Activity,[11],Non-Toxic
same,Tmax,[12],1 h
same,logD,[20],2.4
same,fraction unbound,[13],< 0.01
same,Papp A→B,[14],5.9 ×10⁻⁶ cm/s
same,Drug uptake,[15],Active
same,bioavailability,[16],> 100%
same,Vd,[17],0.7 L/kg
same,Cmax,[18],6.1 µM
same,solubility,[19],< 5 µM
Cc1nnc(Nc2ccc(-c3ccc([C@H]4CC[C@H](CC(=O)O)CC4)cc3)nc2)o1,EC50,[2],206 nM
O=C(O)C[C@H]1CC[C@H](c2ccc(-c3ccc(Nc4nnc(C5CCC5)o4)cn3)cc2)CC1,EC50,[2],12 nM
same,logD,[20],2.8
